We go through one compound from article PMC4083273 (Bioscience Reports, 2014).

Experiment [1] has as its target T1, CobR (corrin reductase) (Brucella melitensis, UniProt Q8YHT7).
T1 construct: gene BMEI0709
The following applies: crystals grown with 2 mM FAD, pH 4.6; FAD in both active sites; second site (additional folded FAD per subunit).

The target of experiment [2] is T1, CobR (corrin reductase). The following applies: reference without excess FAD 70 °C, 50 mM NaPi, 100 mM NaCl pH 6.5, 125°/h, irreversible unfolding.

T1 sequence (Q8YHT7 1-173): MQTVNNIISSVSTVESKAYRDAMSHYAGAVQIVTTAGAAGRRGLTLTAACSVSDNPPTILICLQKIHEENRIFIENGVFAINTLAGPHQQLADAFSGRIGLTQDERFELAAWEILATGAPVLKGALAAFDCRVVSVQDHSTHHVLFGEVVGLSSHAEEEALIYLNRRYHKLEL

`Cc1cc2nc3c(=O)[nH]c(=O)nc-3n(C[C@H](O)[C@H](O)[C@H](O)COP(=O)(O)OP(=O)(O)OC[C@H]3O[C@@H](n4cnc5c(N)ncnc54)[C@H](O)[C@@H]3O)c2cc1C` [FAD]: the “X-ray crystallography, 2.2 Å” value on CobR (corrin reductase) [1] was “FAD is seen occupying both active sites of the homodimer”. Further, the “apparent Tm with excess FAD” value at CobR (corrin reductase) [2] turned out to be 80 °C.
